Like-named read-outs stand apart in the source and are kept apart here.
Columns and labels:
[1] = system: green peach aphid (Myzus persicae); assay: Myzus persicae spray test (Chinese cabbage leaf discs); format: in vivo; settings: foliar, 144 h, read-out: efficacy in %
Procedure: (§1) Myzus persicae—Spray Test
Solvent: • 78 parts by weight of acetone • 1.5 parts by weight of dimethylformamide
(§2) Emulsifier: alkylaryl polyglycol ether
(§3) To produce a suitable preparation of active compound, 1 part by weight of active compound is dissolved using the specified parts by weight of solvent and made up with water containing an emulsifier concentration of 1000 ppm until the desired concentration is attained. To produce further test concentrations, the formulation is diluted with emulsifier-containing water.
Discs of Chinese cabbage leaves (Brassica pekinensis) infested by all stages of the green peach aphid (Myzus persicae) are sprayed with an active compound formulation of the desired concentration.
After 6 days, the efficacy in % is determined. 100% means that all the aphids have been killed; 0% means that no aphids have been killed.

[2] = log P by HPLC on reversed-phase columns (OECD Guideline 117), [a] acidic pH 2.7, [b] neutral pH 7.8; format: physicochemical; settings: reversed-phase (C18) HPLC column
Procedure: The log P values were determined in accordance with OECD Guideline 117 (EC Directive 92/69/EEC) by HPLC (high-performance liquid chromatography) using reversed-phase (RP) columns (C18), by the following methods:
[a] The LC-MS determination in the acidic range is carried out at pH 2.7 with 0.1% aqueous formic acid and acetonitrile (contains 0.1% formic acid) as eluents; linear gradient from 10% acetonitrile to 95% acetonitrile.
[b] LC-MS determination in the neutral range is effected at pH 7.8 with 0.001 molar aqueous ammonium hydrogencarbonate solution and acetonitrile as eluents; linear gradient from 10% acetonitrile to 95% acetonitrile.
Calibration is carried out using unbranched alkan-2-ones (having 3 to 16 carbon atoms) with known log P values (log P values determined on the basis of the retention times by linear interpolation between two successive alkanones).

[3] = system: nematode larvae (Cooperia curticei); assay: Cooperia curticei test; format: in vivo; settings: application rate 20 ppm; after 5 days; 100% = all larvae killed
Procedure: (§4) Solvent: dimethyl sulphoxide
(§5) To produce a suitable preparation of active compound, 10 mg of active compound are mixed with 0.5 ml of dimethyl sulfoxide and the concentrate is diluted with “Ringer's solution” to the desired concentration.
Vessels containing the active compound preparation of the desired concentration are populated with about 40 nematode larvae (Cooperia curticei).
(§6) After 5 days, the kill in % is determined. 100% means that all the larvae have been killed; 0% means that none of the larvae have been killed.

[4] = system: larvae of the mustard beetle (Phaedon cochleariae); assay: Phaedon cochleariae spray test; format: in vivo; settings: application rate 500 g/ha; after 7 days; 100% = all beetle larvae killed
Procedure: Phaedon cochleariae—Spray Test
(§7) Solvent: • 78.0 parts by weight of acetone • 1.5 parts by weight of dimethylformamide
as §2, §3
Discs of Chinese cabbage leaves (Brassica pekinensis) are sprayed with an active compound preparation of the desired concentration and, after drying, populated with larvae of the mustard beetle (Phaedon cochleariae).
After 7 days, the efficacy in % is determined. 100% means that all the beetle larvae have been killed; 0% means that no beetle larvae have been killed.

[5] = system: larvae of the red stomach worm (Haemonchus contortus); assay: Haemonchus contortus test; format: in vivo; settings: application rate 20 ppm; after 5 days; 100% = all larvae killed
Procedure: Haemonchus contortus—Test
as §4, §5
Vessels containing the active compound preparation of the desired concentration are populated with about 40 larvae of the red stomach worm (Haemonchus contortus).
as §6

[6] = system: caterpillars of the armyworm (Spodoptera frugiperda); assay: Spodoptera frugiperda spray test; format: in vivo; settings: application rate 500 g/ha; after 7 days; maize leaf discs; 100% = all caterpillars killed
Procedure: Spodoptera frugiperda—Spray Test
as §7, §2, §3
Leaf discs of maize (Zea mays) are sprayed with an active compound formulation of the desired concentration and, after drying, populated with caterpillars of the armyworm (Spodoptera frugiperda).
After 7 days, the efficacy in % is determined. 100% means that all the caterpillars have been killed; 0% means that no caterpillar has been killed.

[7] = system: green peach aphid (Myzus persicae); assay: Myzus persicae spray test (bell pepper plants); format: in vivo; settings: application rate 4 ppm, after 6 days, 100% = all aphids killed
Procedure: as §1
Solvent: 7 parts by weight of dimethylformamide
as §2
as §3, with “water. If the addition of ammonium salts or/and penetrants is required, these are each added in a concentration of 1000 ppm to the formulation solution.” for “water.”
Bell pepper plants (Capsicum annuum) severely infested with the green peach aphid (Myzus persicae) are treated by spraying with the active compound formulation in the desired concentration.
After 6 days, the kill in % is determined. 100% means that all of the aphids have been killed; 0% means that none of the aphids have been killed.

[8] = system: greenhouse red spider mite (Tetranychus urticae); assay: Tetranychus urticae spray test, OP-resistant; format: in vivo; settings: application rate 500 g/ha; after 6 days; bean leaf discs; 100% = all spider mites killed
Procedure: Tetranychus urticae—Spray Test, OP-Resistant
as §7, §2, §3
Discs of bean leaves (Phaseolus vulgaris) infested with all stages of the greenhouse red spider mite (Tetranychus urticae) are sprayed with an active compound formulation of the desired concentration.
After 6 days, the efficacy in % is determined. 100% means that all the spider mites have been killed; 0% means that no spider mites have been killed.

[9] = system: southern root-knot nematode (Meloidogyne incognita); assay: Meloidogyne incognita test; format: in vivo; settings: application rate 20 ppm; after 14 days; lettuce; 100% = no galls found
Procedure: Meloidogyne incognita—Test
Solvent: 125.0 parts by weight of acetone
To produce a suitable active compound preparation, 1 part by weight of active compound is mixed with the stated amount of solvent and the concentrate is diluted with water to the desired concentration.
Vessels are filled with sand, active compound solution, an egg/larvae suspension of the southern root-knot nematode (Meloidogyne incognita) and lettuce seeds. The lettuce seeds germinate and the plants develop. The galls develop on the roots.
After 14 days, the nematicidal efficacy in % is determined by the formation of galls. 100% means that no galls were found; 0% means that the number of galls on the treated plants corresponds to the untreated control.

[10] = acidic pH 2.7, read-out: logP[a]
[11] = neutral pH 7.8, read-out: logP[b]

Compound | pest or weed control at 500 g/ha [1] | chromatographic logP [2, 10] | chromatographic logP [2, 11] | other results
c1cncc(-c2ccc3nn(-c4cccnc4)cc3c2)c1 [Example 57, 2,5-Bis(3-pyridyl)indazole] | 90% | 0.88 | 1.71 | efficacy (kill in %) [3]: 80%
Fc1cncc(-n2cc3cc(C(F)(F)F)ccc3n2)c1 [Example 16] | 100% | – | – | efficacy in % [4]: 100%
Clc1ccc(-c2ccc3nn(-c4cccnc4)cc3c2)nc1 [Example 67] | 100% | 2.8 | 2.78 | efficacy (kill in %) [5]: 80%; efficacy (kill in %) [3]: 80%
CN(C)C(=O)c1ccc2nn(-c3cnn(C)c3)cc2c1 [Example 38] | – | – | – | efficacy in % [6]: 100%; efficacy in % [4]: 100%
CCSc1ccnc(-c2ccc3nn(-c4cccnc4)cc3c2)c1 [Example 76, 5-[4-(Ethylsulphanyl)pyridin-2-yl]-2-(pyridin-3-yl)-2H-indazole] | 90% | 1.62 | 2.84 | efficacy (kill in %) [3]: 80%
Cc1cc(C)c(-c2ccc3nn(-c4cccnc4)cc3c2)cc1SCC(F)(F)F [Example 51, 5-[2,4-Dimethyl-5-(2,2,2-trifluoroethylsulphanyl)phenyl]-2-(3-pyridyl)indazole] | 90% | 4.42 | 4.4 | efficacy (kill in %) [7]: 100%
CSCn1ccc(-c2ccc3nn(-c4cccnc4)cc3c2)n1 [Example 62] | 90% | 1.97 | 2.11 | –
Cc1cc(F)c(C(=O)N(C)c2ccc3nn(-c4cnn(C)c4)cc3c2)cc1[S+]([O-])CC(F)(F)F (stereo not drawn) [Example 117] | – | – | – | efficacy in % [8]: 90%
CCSc1cccc(-c2ccc3nn(-c4cccnc4)cc3c2)n1 [Example 79] | 100% | 3.57 | 3.57 | –
CN(C(=O)c1ccc2nn(-c3cccnc3)cc2c1)C1CC1 [Example 75, N-Cyclopropyl-N-methyl-2-(pyridin-3-yl)-2H-indazole-5-carboxamide] | 90% | 1.47 | 1.5 | –
Cc1ccc(-c2ccc3nn(-c4cccnc4)cc3c2)nc1 [Example 65] | 90% | 1.23 | 2.25 | efficacy (kill in %) [5]: 80%; efficacy (kill in %) [3]: 90%
Cc1cc(F)c(NC(=O)c2ccc3nn(-c4cccnc4)cc3c2)cc1SCC(F)(F)F [Example 91] | – | 3.22 | 3.12 | pest or weed control at 100 g/ha [1]: 90%
Cc1ccc(-c2ccc3nn(-c4cccnc4)cc3c2)cc1SCC(F)(F)F [Example 50, 5-[4-Methyl-3-(2,2,2-trifluoroethylsulphanyl)phenyl]-2-(3-pyridyl)indazole] | 100% | 4.12 | 4.07 | –
Cn1cc(-c2ccc3nn(-c4cccnc4)cc3c2)cn1 [Example 58, 5-(1-Methylpyrazol-4-yl)-2-(3-pyridyl)indazole] | 90% | 1.51 | 1.57 | –
FC(F)(F)c1ccn(-c2ccc3nn(-c4cccnc4)cc3c2)n1 [Example 56, 2-(3-Pyridyl)-5-[3-(trifluoromethyl)pyrazol-1-yl]indazole] | 90% | 2.83 | 2.79 | efficacy (kill in %) [3]: 90%
FC(F)(F)c1cnn(-c2ccc3nn(-c4cccnc4)cc3c2)c1 [Example 55, 2-(3-Pyridyl)-5-[4-(trifluoromethyl)pyrazol-1-yl]indazole] | 90% | 2.77 | 2.74 | –
Fc1cccc(-c2ccc3nn(-c4cccnc4)cc3c2)n1 [Example 104] | 90% | 2.4 | 2.44 | nematicidal efficacy in % (formation of galls) [9]: 90%
O=C(c1ccc2nn(-c3cccnc3)cc2c1)N1CCSCC1 [Example 92] | 100% | 1.5 | 1.58 | –
Cc1cc(F)c(NC(=O)c2ccc3nn(-c4cccnc4)cc3c2)cc1[S+]([O-])CC(F)(F)F (stereo not drawn) [Example 96] | 100% | 2.19 | 2.14 | –
FC(F)(F)Cn1cc(-c2ccc3nn(-c4cccnc4)cc3c2)cn1 [Example 99, 2-(Pyridin-3-yl)-5-[1-(2,2,2-trifluoroethyl)-1H-pyrazol-4-yl]-2H-indazole] | 90% | 2.12 | 2.12 | nematicidal efficacy in % (formation of galls) [9]: 90%
C[S+]([O-])Cn1cc(-c2ccc3nn(-c4cccnc4)cc3c2)cn1 (stereo not drawn) [Example 74] | 100% | 1.17 | 1.19 | –
Clc1ccnc(-c2ccc3nn(-c4cccnc4)cc3c2)c1 [Example 69] | 100% | 2.62 | 2.66 | –
c1cnc(-c2ccc3nn(-c4cccnc4)cc3c2)nc1 [Example 60, 2-(3-Pyridyl)-5-pyrimidin-2-yl-indazole] | 90% | 1.72 | 1.73 | –
Cc1cc(C)c([S+]([O-])CC(F)(F)F)cc1NC(=O)c1ccc2nn(-c3cccnc3)cc2c1 (stereo not drawn) [Example 97] | 100% | 2.2 | 2.22 | –
O=C(c1ccc2nn(-c3cccnc3)cc2c1)N1CCOCC1 [Example 87] | 100% | 1.14 | 1.16 | –

Source: patent US10131649B2, “Bicyclic compounds as pest control agents” (BAYER CROPSCIENCE AKTIENGESELLSCHAFT, priority 2014, dated 2018)
